# PMC5974779, “Prediction of Drug-Induced Hepatotoxicity Using Long-Term Stable Primary Hepatic 3D Spheroid Cultures in Chemically Defined Conditions” (Toxicological Sciences, 2018)
# Structures can show the parent of a compound that is named as a salt. Where two headings read alike, the source gives them in different places.
# Tests used:
# [1] = test system: primary human hepatocytes (PHH) 3D spheroids
# clinical DILI in man = conditions: in vivo; cited from earlier work
# [2] = cited from earlier work
# PHH 2D sandwich cultures = conditions: cited from earlier work; for hepatotoxicity detection in 2D sandwich cultures of PHH: 100× cmax, 24 h, high content imaging; for hepatotoxicity detection in 2D sandwich cultures of PHH / reactive oxygen species levels in 2D sandwich cultures of PHH: ref Xu et al., 2008
# [3] = ref DrugBank and Prescribers' Digital Reference database; cited from earlier work
# [4] = therapeutic total cmax, ref PMID
# [5] = PHH 2D sandwich cultures, 100x Cmax, ref Xu 2008
Compound,Chemically defined spheroids (this study) 20x [1],Classified as (clinical DILI in man),Clinical DILI class (panel heading of Figure 4) (clinical DILI in man),DILI in vivo (clinical DILI in man),Type of DILI (clinical DILI in man),"Cmax [2, 4]",2Dsw (Xu 2008) 100x (PHH 2D sandwich cultures; [5]),also measured
CCCSc1ccc2nc(NC(=O)OC)[nH]c2c1 [Albendazole],Negative,POS,Severe DILI,POS,Cholestatic injury or Mixed hepatitis,900 nM,Positive,hepatotoxicity evaluation in CD-spheroids [1]: predicted to be DILI negative; FDA (0-8) (clinical DILI in man): 7; Suzuki et al. (2010) (clinical DILI in man): 1; Xu et al. (2008) (clinical DILI in man): Positive; hepatotoxicity detection in 2D sandwich cultures of PHH (PHH 2D sandwich cultures): flagged as hepatotoxic; reactive oxygen species levels in 2D sandwich cultures of PHH (PHH 2D sandwich cultures): only slight increases in reactive oxygen species levels
CC(C)NCC(O)COc1ccc(CC(N)=O)cc1 (stereo not drawn) [Atenolol],,,,,,,Negative,
CN1CCN(C2=Nc3cc(Cl)ccc3Nc3ccccc32)CC1 [Clozapine],,,,,,2450 nM,,Extent of hepatic metabolism [3]: Extensive
O=c1ccc2ccccc2o1 [Coumarin],Positive,POS,High DILI concern,POS,Cholestatic injury,10000 nM,,
NS(=O)(=O)c1cc(C(=O)O)c(NCc2ccco2)cc1Cl [Furosemide],,,,,,,Negative,
CN(C)C(=O)C(CCN1CCC(O)(c2ccc(Cl)cc2)CC1)(c1ccccc1)c1ccccc1 [Loperamide],,,,,,,,"Cmax ([2]; human, in vivo): 7.8 nM"
CN(C)CCN(Cc1cccs1)c1ccccn1 [Methapyrilene],,NEG,DILI negative,NEG,Non-hepatotoxic,170 nM,,Extent of hepatic metabolism [3]: Moderate
CCc1c(C)[nH]c2c1C(=O)C(CN1CCOCC1)CC2 (stereo not drawn) [Molindone],Negative,POS,High DILI concern,POS,Hepatocellular injury,1540 nM,Negative,
COC(=O)C1=C(C)NC(C)=C(C(=O)OCCN(C)Cc2ccccc2)C1c1cccc([N+](=O)[O-])c1 (stereo not drawn) [Nicardipine],,,,,,80 nM,,
CC(C)NCC(O)COc1cccc2[nH]ccc12 (stereo not drawn) [Pindolol],,NEG,DILI negative,NEG,Non-hepatotoxic,270 nM,Negative,FDA (0-8) (clinical DILI in man): 0; Xu et al. (2008) (clinical DILI in man): Negative
CC(C)NCC(O)COc1cccc2ccccc12 (stereo not drawn) [Propranolol],,,,,,,,Extent of hepatic metabolism [3]: Extensive
CC/C(=C(\c1ccccc1)c1ccc(OCCN(C)C)cc1)c1ccccc1 [Tamoxifen],,,,,,160 nM,,Extent of hepatic metabolism [3]: Extensive
CN(C)[C@@H]1C(O)=C(C(N)=O)C(=O)[C@@]2(O)C(O)=C3C(=O)c4c(O)cccc4[C@@](C)(O)[C@H]3C[C@@H]12 [Tetracycline],,POS,High DILI concern,POS,Hepatocellular injury,,,FDA (0-8) (clinical DILI in man): 2; FDA (Severity) (clinical DILI in man): less DILI concern; Guo et al. (2005) (clinical DILI in man): 3; O'Brien et al. (2003) (clinical DILI in man): Moderately; Sakatis et al. (2012) (clinical DILI in man): Hepatotoxic; Suzuki et al. (2010) (clinical DILI in man): 1; Xu et al. (2008) (clinical DILI in man): Positive
CN1CCN(CCCN2c3ccccc3Sc3ccc(C(F)(F)F)cc32)CC1 [Trifluoperazine],Negative,POS,High DILI concern,POS,Cholestatic injury or Mixed hepatitis,4.5 nM,Positive,hepatotoxicity evaluation in CD-spheroids [1]: predicted to be DILI negative; FDA (0-8) (clinical DILI in man): 2; FDA (Severity) (clinical DILI in man): less DILI concern; O'Brien et al. (2003) (clinical DILI in man): Moderately; Xu et al. (2008) (clinical DILI in man): Positive; hepatotoxicity detection in 2D sandwich cultures of PHH (PHH 2D sandwich cultures): flagged as hepatotoxic; reactive oxygen species levels in 2D sandwich cultures of PHH (PHH 2D sandwich cultures): only slight increases in reactive oxygen species levels
CC(=O)CC(c1ccccc1)c1c(O)c2ccccc2oc1=O (stereo not drawn) [Warfarin],Negative,,,,,4860 nM,,

# Now from value to molecule, other results behind:
Chemically defined spheroids (this study) 20x [1],Compound,Classified as (clinical DILI in man),Clinical DILI class (panel heading of Figure 4) (clinical DILI in man),DILI in vivo (clinical DILI in man),Type of DILI (clinical DILI in man),"Cmax [2, 4]",2Dsw (Xu 2008) 100x (PHH 2D sandwich cultures; [5]),also measured
Negative,NC12CC3CC(CC(C3)C1)C2 [Amantadine],NEG,DILI negative,NEG,Non-hepatotoxic,4300 nM,,FDA (0-8) (clinical DILI in man): 3; FDA (Severity) (clinical DILI in man): less DILI concern; Xu et al. (2008) (clinical DILI in man): Negative; 2Dsw (Xu 2008) 100x (PHH 2D sandwich cultures): Negative
Negative,N=C(N)NC(=O)c1nc(Cl)c(N)nc1N [Amiloride],NEG,DILI negative,NEG,Non-hepatotoxic,87 nM,,FDA (0-8) (clinical DILI in man): 3; Suzuki et al. (2010) (clinical DILI in man): 2; Xu et al. (2008) (clinical DILI in man): Negative; 2Dsw (Xu 2008) 100x (PHH 2D sandwich cultures): Negative
Negative,CCC(=O)OCC(=O)[C@@]1(OC(=O)CC)[C@@H](C)C[C@H]2[C@@H]3CCC4=CC(=O)C=C[C@]4(C)[C@@]3(Cl)[C@@H](O)C[C@@]21C [Beclomethasone Dipropionate],,,,,0.15 nM,,
Negative,CN(C)CCC(c1ccc(Br)cc1)c1ccccn1 (stereo not drawn) [Brompheniramine Maleate],,,,,27 nM,,
Positive,CN(C)CCCN1c2ccccc2CCc2ccc(Cl)cc21 [Clomipramine],,,,,,,hepatotoxicity detection in 2D sandwich cultures of PHH (PHH 2D sandwich cultures): liver toxicity was not recognized
Negative,CCN(CC)C(=O)N1CCN(C)CC1 [Diethylcarbamazine],,,,,1630 nM,,
Negative,COc1ccc([C@@H]2Sc3ccccc3N(CCN(C)C)C(=O)[C@@H]2OC(C)=O)cc1 [Diltiazem],,,,,327 nM,,
Positive,CCN(CC)C(=S)SSC(=S)N(CC)CC [Disulfiram],,,,,1350 nM,,
Negative,C[C@]12CCC(=O)C=C1CC[C@@H]1[C@@H]2[C@@H](O)C[C@@]2(C)[C@H]1CC[C@]2(O)C(=O)CO [Hydrocortisone],NEG,DILI negative,NEG,Non-hepatotoxic,840 nM,Negative,FDA (0-8) (clinical DILI in man): 0; Xu et al. (2008) (clinical DILI in man): Negative
Negative,N[C@@H](Cc1ccc(O)c(O)c1)C(=O)O [Levodopa],,,,,6850 nM,Negative,
Positive,NCCCC[C@H](N[C@@H](CCc1ccccc1)C(=O)O)C(=O)N1CCC[C@H]1C(=O)O [Lisinopril],,,,,660 nM,,hepatotoxicity detection in 2D sandwich cultures of PHH (PHH 2D sandwich cultures): liver toxicity was not recognized
Positive,Cc1cccc(C)c1OCC(C)N (stereo not drawn) [Mexiletine],POS,High DILI concern,POS,Hepatocellular injury or Mixed hepatitis,35000 nM,,FDA (0-8) (clinical DILI in man): 3; FDA (Severity) (clinical DILI in man): less DILI concern; Suzuki et al. (2010) (clinical DILI in man): 1; Xu et al. (2008) (clinical DILI in man): Positive; 2Dsw (Xu 2008) 100x (PHH 2D sandwich cultures): Positive
Negative,Clc1ccc(COC(Cn2ccnc2)c2ccc(Cl)cc2Cl)c(Cl)c1 (stereo not drawn) [Miconazole],,,,,24 nM,,
Positive,COCCOC(=O)C1=C(C)NC(C)=C(C(=O)OC(C)C)C1c1cccc([N+](=O)[O-])c1 (stereo not drawn) [Nimodipine],,,,,110 nM,Positive,
Negative,CC(N/C(=N\C#N)Nc1ccncc1)C(C)(C)C (stereo not drawn) [Pinacidil],NEG,DILI negative,NEG,Non-hepatotoxic,290 nM,Negative,
Negative,CC(=O)Nc1ccc(OCC(O)CNC(C)C)cc1 (stereo not drawn) [Practolol],,,,,18800 nM,,
Positive,C=C[C@H]1C[N@@]2CC[C@H]1C[C@@H]2[C@@H](O)c1ccnc2ccc(OC)cc12 [Quinidine],,,,,8660 nM,,2Dsw (Xu 2008) 100x (PHH 2D sandwich cultures): Positive
Positive,O=C(O)c1cc(/N=N/c2ccc(S(=O)(=O)Nc3ccccn3)cc2)ccc1O [Sulfasalazine],,,,,15100 nM,,
